We go through 15 compounds from patent publication US20210315893A1 (Galapagos NV, priority 2017, published 2021).

SMILES strings stand for the structures.

Assay [1] addresses T1, human GPCR sphingosine 1-phosphate receptor 1 (Homo sapiens, UniProt P21453).
T1 construct: host or cells: CHO
The assay is described as follows: S1PR1 selectivity Ca2+ flux assay (antagonist readout). Particulars: antagonist readout, CHO cells overexpressing human S1PR1 and Gq, S1P at EC80 (6 nM); read-out: S1P1 EC50 (nM), S1P1 antagonist EC50. The assay is classed as cell-based. How it is done: (§1) 50 μL of Chinese hamster ovary (CHO) cells stably overexpressing human S1PR1 or S1PR5 are seeded in 384 well sterile microplates (7,500 cells/well or 10,000 cells/well respectively) and are incubated overnight at 37° C. under 5% CO2. Cells are subsequently washed twice with 25 μL/well of starvation medium (F-12 Ham's medium containing 0.1% fatty acid free bovine serum albumin (FAF BSA)). After one h starvation at 37° C., 5% CO2, cells are loaded with 25 μL of Fluo 8 dye diluted in Hank's balanced salt solution (HBSS) with 20 mM Hepes complemented with 5 mM of probenecid following the recommendations of the manufacturer (one h at 37° C., 5% CO2). Dilution series of compounds are prepared in HBSS buffer with 20 mM Hepes and 0.1% BSA (FAF). 10 μL of diluted compound is added to the cells using the FDSS/pCELL and intracellular calcium changes are measured immediately by recording fluorescence during 3 min (agonist readout). The ratio of maximal signal over background before compound injection is used to determine compound response.
After an incubation of 15 min at 37° C., following the agonist readout, the plates are transferred to the FDSS/pCELL reader. […] The ratio of maximal signal over background before S1P injection was used to determine the inhibitory effect ofthe compound.
(§2) Raw data obtained in each experiment (ratio of maximal signal over background for calcium mobilization assays) were normalized in percentage of activation (agonist mode) or inhibition (antagonist mode) using positive and negative experiment controls. Each individual plate quality was assessed by evaluation of Z′ factor calculated with raw data using the following equation
(§3) Y=bottom+(top−bottom)/(1+(10^(Log IC50−X)*Hillslope)) where X is the logarithm of the concentration of the compound
In general terms: Calcium assays in cells follow changes in intracellular calcium, usually with a dye or a luminescent sensor.

A further assay addresses T2, S1PR2 (Homo sapiens, UniProt O95136).
T2 construct: expressed in transfected cells
Put plainly: S1PR2 binding assay (competition with radioactively labeled S1P, SpA). Particulars: membranes from stable cell line over expressing S1PR2, SpA beads; read-out: S1P2 EC50 (nM), S1PR2 binding EC50. A digest of the protocol: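 Competition with [3H]S1P for membranes from a stable S1PR2-overexpressing cell line, 20 μg/well, captured on PVT-WGA SPA beads, in 20 mM Tris pH 7.5, 10 mM MgCl2, 100 mM NaCl, 0.4% fatty-acid-free BSA, 1 mM Na3VO4. 2 h at room temperature, then centrifugation and scintillation counting.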

The test system of assay [2] is HFL-1 cells. Put plainly: IL-8 production assay (S1P induced IL-8). The assay is classed as cell-based. Particulars: Homo sapiens, HFL1; S1P (1 μM) induced IL-8 in HFL-1 cells, starvation medium without HSA; read-out: IL8 EC50. The essentials: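 HFL-1 human fetal lung fibroblasts were starved in F12K/1% FBS, then given compound for 1 h (10-point, 1/3 dilution, 30 μM top, 0.3% DMSO final). S1P was added at 1 μM final for 16–24 h at 37 °C, and secreted IL-8 in supernatant quantified by ELISA.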

The subject of assay [3] is HFL-1 cells. Put plainly: IL8 assay in the presence of Human Serum Albumin. Particulars: HFL1, read-out: HSA IL8 EC50.
The target of assay [4] is T3, human GPCR sphingosine 1-phosphate receptor 2 (Homo sapiens, UniProt O95136).
T3 construct: host or cells: CHO
T3 sequence (O95136 whole entry): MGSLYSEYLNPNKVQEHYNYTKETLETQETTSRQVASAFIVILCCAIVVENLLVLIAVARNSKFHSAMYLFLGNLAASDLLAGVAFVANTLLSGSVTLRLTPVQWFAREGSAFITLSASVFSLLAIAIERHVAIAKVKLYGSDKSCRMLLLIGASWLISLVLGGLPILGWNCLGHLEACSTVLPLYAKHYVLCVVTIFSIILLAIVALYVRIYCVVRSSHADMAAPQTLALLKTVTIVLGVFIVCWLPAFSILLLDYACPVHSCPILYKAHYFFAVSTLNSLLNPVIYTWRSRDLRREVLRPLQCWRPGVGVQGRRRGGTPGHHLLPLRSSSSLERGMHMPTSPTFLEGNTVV
Put plainly: S1PR2 antagonist Ca2+ flux assay. Format: cell-based. Particulars: antagonist mode, CHO-S1PR2 cells, S1P at EC80, Ca2+ fluorescence; read-out: S1P2 EC50 (nM), S1P2 antagonist EC50. A digest of the protocol:
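CHO cells stably expressing human S1PR2, serum-starved 1 h, Fluo8-loaded; compound-evoked Ca2+ fluorescence read 3 min (agonist mode), then after 15 min S1P at EC80 added and read 3 min (antagonist mode). Max/baseline fluorescence ratios normalised to vehicle and S1P EC100 or EC50 controls; EC50 derived.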

In assay [5] the target is T4, human GPCR sphingosine 1-phosphate receptor 5 (Homo sapiens, UniProt Q9H228).
T4 construct: host or cells: CHO
T4 sequence (Q9H228 whole entry): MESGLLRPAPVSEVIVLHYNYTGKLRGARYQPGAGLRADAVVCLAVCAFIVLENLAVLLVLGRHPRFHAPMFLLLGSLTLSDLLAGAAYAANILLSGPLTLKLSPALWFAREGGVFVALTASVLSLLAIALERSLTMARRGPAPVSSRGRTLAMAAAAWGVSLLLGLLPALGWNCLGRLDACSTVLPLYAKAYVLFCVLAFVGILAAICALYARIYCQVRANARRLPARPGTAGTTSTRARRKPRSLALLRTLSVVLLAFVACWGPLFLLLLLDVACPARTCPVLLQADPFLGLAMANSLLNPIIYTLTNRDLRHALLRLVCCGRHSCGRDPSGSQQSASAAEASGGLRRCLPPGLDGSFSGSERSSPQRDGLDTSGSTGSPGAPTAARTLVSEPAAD
The assay is described as follows: S1PR5 selectivity Ca2+ flux assay (antagonist readout). Particulars: CHO cells overexpressing human S1PR5 and Gq, agonist at EC80 (20 nM), read-out: S1P5 EC50 (nM), S1P5 antagonist EC50. The assay is classed as cell-based.
Source text: To evaluate the selectivity of the compounds for S1PR2 over S1PR1 and S1PR5, asimilar assay set upas described above for theS1PR2 calcium flux assays waspeformed: CHO cells stably overexpressing human GPCR sphingosine 1-phosphate receptor 1 and Gq protein (Euroscreen, FAST-0197A) or overexpressing human GPCR sphingosine 1-phosphate receptorS5 and Gq protein were used (Perkin Elmer, ES-593-A). In case of the S1PR5 assay triggering was done with an SPR5 specific agonist instead of with S1P (Hobson et al., 2015).
as §1
After an incubation of 15 min at 37° C., following the agonist readout, the plates are transferred to the FDSS/pCELL reader. Cells are stimulated with 10 μL of EC80 concentration of S1P (6 nM for S1P1 and 20 nM for S1P5) and intracellular calcium changes are measured immediately by recording fluorescence during three min (antagonist readout). The ratio of maximal signal over background before S1P injection was used to determine the inhibitory effect ofthe compound.
as §2, §3

T2 sequence (O95136 whole entry): as the sequence (O95136 whole entry) above
T1 sequence (P21453 whole entry): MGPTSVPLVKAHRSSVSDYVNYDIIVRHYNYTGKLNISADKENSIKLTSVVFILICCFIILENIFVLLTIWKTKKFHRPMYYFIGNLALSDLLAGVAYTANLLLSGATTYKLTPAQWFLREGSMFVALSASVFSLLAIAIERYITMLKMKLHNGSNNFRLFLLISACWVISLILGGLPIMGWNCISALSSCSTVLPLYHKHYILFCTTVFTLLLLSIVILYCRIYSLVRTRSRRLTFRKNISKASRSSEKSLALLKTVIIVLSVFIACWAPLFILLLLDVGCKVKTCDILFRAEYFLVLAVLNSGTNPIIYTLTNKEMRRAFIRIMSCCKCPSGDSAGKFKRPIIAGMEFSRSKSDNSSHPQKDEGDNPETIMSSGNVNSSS

As usually defined, the EC50 is the concentration needed to bring the measured effect to its halfway point. Take `CN1CCC(n2nc(Cc3nc4cc(OCC(F)F)c(C#N)cc4[nH]3)c3ccccc3c2=O)C1` (stereo not drawn) [Compound 72, 6-(2,2-difluoroethoxy)-2-[[3-(1-methylpyrrolidin-3-yl)-4-oxo-phthalazin-1-yl]methyl]-3H-benzimidazole-5-carbonitrile]: the EC50 is ≥ 19800 nM in assay [1], 3090 nM at S1PR2, 5180 nM in the assay with HFL-1 cells [2] and 1950 nM in the assay with HFL-1 cells [3].
In the case of `O=C(O)C1CCC1n1nc(Cn2cc3cc(OCC4CC4)c(Cl)cc3n2)c2ccccc2c1=O` (stereo not drawn) [Compound 91, 2-[4-[[6-chloro-5-(cyclopropylmethoxy)indazol-2-yl]methyl]-1-oxo-phthalazin-2-yl]cyclobutanecarboxylic acid], the EC50 is 22.2 nM in assay [4], ≥ 19800 nM in assay [1], 60.7 nM in the assay on HFL-1 cells [2] and 5710 nM with HFL-1 cells [3].
With `O=C(O)Cc1nn(Cc2cn3cc(OCC4CC4)c(C(F)(F)F)cc3n2)c2ccccc2c1=O` [Compound 99, 2-[1-[[6-(cyclopropylmethoxy)-7-(trifluoromethyl)imidazo[1,2-a]pyridin-2-yl]methyl]-4-oxo-cinnolin-3-yl]acetic acid], the EC50 in assay [4] is 3.56 nM; in assay [5] it was 6610 nM; at S1PR2, 44.9 nM; in the assay with HFL-1 cells [3], 322 nM.
For `O=C(O)Cn1nc(Cc2nc3cc(OC(F)(F)F)c(Cl)cc3[nH]2)c2ccccc2c1=O` [Compound 112, 2-[4-[[6-chloro-5-(trifluoromethoxy)-1H-benzimidazol-2-yl]methyl]-1-oxo-phthalazin-2-yl]acetic acid], the 50% effective concentration (EC50) in assay [1] is ≥ 19900 nM; in the assay on HFL-1 cells [2], 541 nM; in the assay on HFL-1 cells [3], 1640 nM.
For `O=C(O)Cn1nc(Cc2nc3cc(Cl)c(OC(F)(F)F)cc3[nH]2)c2c(c1=O)CCCC2` [Compound 113, 2-[4-[[5-chloro-6-(trifluoromethoxy)-1H-benzimidazol-2-yl]methyl]-1-oxo-5,6,7,8-tetrahydrophthalazin-2-yl]acetic acid], the EC50 in assay [4] was 23.7 nM; in assay [1] it was ≥ 19900 nM; on S1PR2, 154 nM; with HFL-1 cells [2], 418 nM; in the assay with HFL-1 cells [3], 917 nM.
Consider `COc1cc2nc(Cc3nn(CC(=O)O)c(=O)c4ccccc34)[nH]c2cc1Cl` [Compound 136, 2-[4-[(6-chloro-5-methoxy-1H-benzimidazol-2-yl)methyl]-1-oxo-phthalazin-2-yl]acetic acid], for which the EC50 is ≥ 19900 nM in assay [1] and 26 nM in the assay on HFL-1 cells [2].
With `CCOc1cc2cn(Cc3nn(CC(=O)O)c(=O)c4ccccc34)nc2cc1Br` [Compound 137, 2-[4-[(6-bromo-5-ethoxy-indazol-2-yl)methyl]-1-oxo-phthalazin-2-yl]acetic acid], the EC50 was 21 nM in assay [4]; ≥ 19900 nM in assay [1]; 59.4 nM at S1PR2; 105 nM in the assay on HFL-1 cells [2]; 3180 nM in the assay with HFL-1 cells [3].
The corresponding values for `O=C(Cn1nc(Cc2nc3cc(OC(F)(F)F)c(Cl)cc3[nH]2)c2ccccc2c1=O)N[C@H]1CCC[C@H]1O` [Compound 140, 2-[4-[[6-chloro-5-(trifluoromethoxy)-1H-benzimidazol-2-yl]methyl]-1-oxo-phthalazin-2-yl]-N-[(1S,2R)-2-hydroxycyclopentyl]acetamide] are 13 nM, ≥ 19900 nM, 29.8 nM, 114 nM and 1110 nM.
For the compound `O=C(Cn1nc(Cc2nc3cc(OC(F)(F)F)c(Cl)cc3[nH]2)c2ccccc2c1=O)NC1CCS(=O)(=O)CC1` [Compound 141, 2-[4-[[6-chloro-5-(trifluoromethoxy)-1H-benzimidazol-2-yl]methyl]-1-oxo-phthalazin-2-yl]-N-(1,1-dioxothian-4-yl)acetamide], the EC50 was 21.1 nM in assay [4], ≥ 19900 nM in assay [1], 70.6 nM at S1PR2 and 130 nM in the assay on HFL-1 cells [2].
As to `O=C(Cn1nc(Cc2nc3cc(OC(F)(F)F)c(Cl)cc3[nH]2)c2ccccc2c1=O)N1CCOCC1` [Compound 142, 4-[[6-chloro-5-(trifluoromethoxy)-1H-benzimidazol-2-yl]methyl]-2-(2-morpholino-2-oxo-ethyl)phthalazin-1-one], the EC50 in assay [4] was 30.1 nM; in assay [1] it was ≥ 19900 nM; on S1PR2, 103 nM; with HFL-1 cells [2] it was 191 nM; in the assay with HFL-1 cells [3], 952 nM.
The like results for `O=C(Cn1nc(Cc2nc3cc(Cl)c(OC(F)(F)F)cc3[nH]2)c2c(c1=O)CCCC2)N1CCOCC1` [Compound 145, 4-[[5-chloro-6-(trifluoromethoxy)-1H-benzimidazol-2-yl]methyl]-2-(2-morpholino-2-oxo-ethyl)-5,6,7,8-tetrahydrophthalazin-1-one] were, in that order, 42.6 nM, ≥ 19900 nM, 80.2 nM, 89.3 nM and 330 nM.
The corresponding values for `O=C(Cn1nc(Cn2cc3cc(OCC4CC4)c(Cl)cc3n2)c2ccccc2c1=O)N1CCOCC1` [Compound 148, 4-[[6-chloro-5-(cyclopropylmethoxy)indazol-2-yl]methyl]-2-(2-morpholino-2-oxo-ethyl)phthalazin-1-one] are 41.5 nM, ≥ 19900 nM, 32.1 nM, 68.9 nM and 785 nM.
The like results for `CCOc1cc2cn(Cc3nn(CC(=O)O)c(=O)c4ccccc34)nc2cc1Cl` [Compound 251, 2-[4-[(6-chloro-5-ethoxy-indazol-2-yl)methyl]-1-oxo-phthalazin-2-yl]acetic acid] were, in that order, 179 nM, ≥ 19900 nM, 113 nM, 111 nM and 3460 nM.
With `O=C(O)Cn1nc(Cn2cc3cc(OCC(F)(F)F)c(Cl)cc3n2)c2ccccc2c1=O` [Compound 252, 2-[4-[[6-chloro-5-(2,2,2-trifluoroethoxy)indazol-2-yl]methyl]-1-oxo-phthalazin-2-yl]acetic acid], the EC50 in assay [4] is 62.6 nM; in assay [1], ≥ 19900 nM; at S1PR2 it was 239 nM; in the assay with HFL-1 cells [2], 145 nM; with HFL-1 cells [3], 16500 nM.
The corresponding values for `O=C(O)Cn1nc(Cn2cc3cc(OCC(F)F)c(Cl)cc3n2)c2ccccc2c1=O` [Compound 253, 2-[4-[[6-chloro-5-(2,2-difluoroethoxy)indazol-2-yl)methyl]-1-oxo-phthalazin-2-yl]acetic acid] are 184 nM, ≥ 19900 nM, 182 nM, 290 nM and 4130 nM.
